Reference: patent publication US9932637B2, “Genetic polymorphisms associated with cardiovascular disorders and drug response, methods of detection and uses thereof” (CELERA CORPORATION, priority 2003, dated 2018)

Tested on: patients with prior myocardial infarction (CARE study)
Test: CARE: association of SNPs with pravastatin treatment in cardiovascular events prevention (logistic regression, odds ratio pravastatin vs placebo by genotype; Table 8)
Type: in vivo, human
Description: In order to identify genetic markers associated with acute coronary events (e.g. MI, stroke, unstable angina, congestive heart failure, etc.) or response to statin treatment for the prevention of coronary events, samples from the Cholesterol and Recurrent Events (CARE) study (a randomized multicentral double-blinded trial on secondary prevention of acute coronary events with pravastatin) (Sacks et al., 1991, Am. J. Cardiol. 68: 1436-1446) were genotyped. A well-documented myocardial infarction (MI) was one of the enrollment criteria for entry into the CARE study. Patients were enrolled in the CARE trial from 80 participating study centers. […] Patients were randomized to receive either 40 mg of pravastatin once daily or a matching placebo. The primary endpoint of the trial was death from coronary heart disease and the median duration of follow-up was 5.0 years (range, 4.0 to 6.2 years). […] Secondary endpoints of other related cardiovascular or metabolic disease events, and changes in clinical variables were also recorded in pravastatin-treated and placebo groups. All individuals included in the study had signed a written informed consent form and the study protocol was approved by the respective Institutional Review Boards (IRBs).
For genotyping SNPs in CARE patient samples, DNA was extracted from blood samples using conventional DNA extraction methods such as the QIA-amp kit from Qiagen. Genotypes were obtained on an ABI PRISM® 7900HT Sequence Detection PCR system (Applied Biosystems, Foster City, Calif.) by kinetic allele-specific PCR, similar to the method described by Germer et al. (Germer S., Holland M. J., Higuchi R. 2000, Genome Res. 10: 258-266).
Statistical analysis for association of SNPs with pravastatin treatment in cardiovascular events prevention (Table 8) was carried out using an overall logistic regression model that included an intercept, a parameter for the effect of a genotype containing two rare alleles versus a genotype containing no rare alleles, a parameter for the effect of a genotype containing one rare allele versus a genotype containing no rare alleles, a parameter for the effect of use of pravastatin versus the use of placebo, and parameters for the interaction effects between SNP genotypes and pravastatin use. The test of the overall model is a chi-square test with two degrees of freedom for analyses containing all three genotypes, and one degree of freedom for analyses containing two genotypes.
Effect sizes were estimated through odds ratios (pravastatin group versus placebo) for carriers of each genotype (groups of 0, 1, and 2 minor allele carriers). The effect was considered to be significant if p-value for testing whether any of the interactions between SNP genotypes and pravastatin use were <0.05. […] Odds ratios less than one indicate that the specific SNP allele has a protective effect and odds ratios greater than one indicate that the specific SNP allele has an adverse effect.

[1] = CXCL16 hCV8718197, All Patients, Cardiovascular Mortality
[2] = CXCL16 hCV8718197, All Patients, Coronary Artery Bypass or Revascularization
[3] = CXCL16 hCV8718197, All Patients, Fatal Atherosclerotic Cardiovascular Disease
[4] = CXCL16 hCV8718197, All Patients, Fatal CHD/Definite Non-fatal MI
[5] = CXCL16 hCV8718197, All Patients, Fatal/Non-fatal MI (def & prob)
[6] = CXCL16 hCV8718197, All Patients, Hosp. for Cardiovascular Disease
[7] = CXCL16 hCV8718197, All Patients, Total Cardiovascular Disease Events
[8] = CXCL16 hCV8718197, All Patients, Total Coronary Heart Disease
[9] = CYP4F2 hCV16179493, All Patients, 0 Rare Alleles, Prava arm
[10] = CYP4F2 hCV16179493, All Patients, 1 Rare Allele, Prava arm
[11] = CYP4F2 hCV16179493, All Patients, 2 Rare Alleles, Prava arm
[12] = ELN hCV1253630, All Patients, 0 Rare Alleles, Prava, n/total 45/543

## CC[C@H](C)C(=O)O[C@H]1C[C@H](O)C=C2C=C[C@H](C)[C@H](CC[C@@H](O)C[C@@H](O)CC(=O)O)[C@H]21 [pravastatin]
CXCL16 hCV8718197, All Patients, 2 Rare Alleles, Prava, n/total 19/292
  Fatal Atherosclerotic Cardiovascular Disease, n/total (%): (6.5%)
CXCL16 hCV8718197, All Patients, 2 Rare Alleles, Prava, n/total 34/292
  Fatal CHD/Definite Non-fatal MI, n/total (%): (11.6%)
CXCL16 hCV8718197, All Patients, 2 Rare Alleles, Prava, n/total 36/292
  Fatal/Non-fatal MI (def & prob), n/total (%): (12.3%)
CXCL16 hCV8718197, All Patients, 2 Rare Alleles, Prava, n/total 43/292
  Coronary Artery Bypass or Revascularization, n/total (%): (14.7%)
CXCL16 hCV8718197, All Patients, 2 Rare Alleles, Prava, n/total 94/292
  Total Coronary Heart Disease Events, n/total (%): (32.2%)
CXCL16 hCV8718197, All Patients, 2 Rare Alleles, Prava, n/total 124/292
  Hosp. for Cardiovascular Disease, n/total (%): (42.5%)
CXCL16 hCV8718197, All Patients, 2 Rare Alleles, Prava, n/total 130/292
  Total Cardiovascular Disease Events, n/total (%): (44.5%)
[1]
  Prava vs. Placebo Odds Ratio, 0 Rare Alleles: 0.45
  Prava vs. Placebo Odds Ratio, 1 Rare Alleles: 0.80
  Prava vs. Placebo Odds Ratio, 2 Rare Alleles: 2.08
[2]
  Prava vs. Placebo Odds Ratio, 0 Rare Alleles: 0.45
  Prava vs. Placebo Odds Ratio, 1 Rare Alleles: 0.93
  Prava vs. Placebo Odds Ratio, 2 Rare Alleles: 0.70
[3]
  Prava vs. Placebo Odds Ratio, 0 Rare Alleles: 0.45
  Prava vs. Placebo Odds Ratio, 1 Rare Alleles: 0.76
  Prava vs. Placebo Odds Ratio, 2 Rare Alleles: 2.08
[4]
  Prava vs. Placebo Odds Ratio, 0 Rare Alleles: 0.44
  Prava vs. Placebo Odds Ratio, 1 Rare Alleles: 0.82
  Prava vs. Placebo Odds Ratio, 2 Rare Alleles: 1.05
[5]
  Prava vs. Placebo Odds Ratio, 0 Rare Alleles: 0.38
  Prava vs. Placebo Odds Ratio, 1 Rare Alleles: 0.80
  Prava vs. Placebo Odds Ratio, 2 Rare Alleles: 0.92
[6]
  Prava vs. Placebo Odds Ratio, 0 Rare Alleles: 0.59
  Prava vs. Placebo Odds Ratio, 1 Rare Alleles: 0.89
  Prava vs. Placebo Odds Ratio, 2 Rare Alleles: 0.80
[7]
  Prava vs. Placebo Odds Ratio, 0 Rare Alleles: 0.56
  Prava vs. Placebo Odds Ratio, 1 Rare Alleles: 0.90
  Prava vs. Placebo Odds Ratio, 2 Rare Alleles: 0.81
[8]
  Prava vs. Placebo Odds Ratio, 0 Rare Alleles: 0.57
  Prava vs. Placebo Odds Ratio, 1 Rare Alleles: 0.92
  Prava vs. Placebo Odds Ratio, 2 Rare Alleles: 0.82
[9]
  Cardiovascular Mortality, n/total (%): (3.3%)
  Catheterization, n/total (%): (10.5%)
  Fatal Atherosclerotic Cardiovascular Disease, n/total (%): (3.2%)
  Fatal Coronary Heart Disease, n/total (%): (2.5%)
  Total Mortality, n/total (%): (4.7%)
[10]
  Cardiovascular Mortality, n/total (%): (4.4%)
  Catheterization, n/total (%): (8.6%)
  Fatal Atherosclerotic Cardiovascular Disease, n/total (%): (4.4%)
  Fatal Coronary Heart Disease, n/total (%): (4.2%)
  Total Mortality, n/total (%): (6.6%)
[11]
  Cardiovascular Mortality, n/total (%): (2.1%)
  Catheterization, n/total (%): (16.7%)
  Fatal Atherosclerotic Cardiovascular Disease, n/total (%): (2.1%)
  Fatal Coronary Heart Disease, n/total (%): (2.1%)
  Total Mortality, n/total (%): (4.2%)
ELN hCV1253630, All Patients, 0 Rare Alleles, Prava, n/total 42/543
  Non-fatal MI (def & prob), n/total (%): (7.7%)
[12]
  Fatal CHD/Definite Non-fatal MI, n/total (%): (8.3%)
  Fatal/Non-fatal MI (def & prob), n/total (%): (8.3%)
ELN hCV1253630, All Patients, 0 Rare Alleles, Prava, n/total 146/543
  Total Coronary Heart Disease Events, n/total (%): (26.9%)
ELN hCV1253630, All Patients, 0 Rare Alleles, Prava, n/total 204/543
  Hosp. for Cardiovascular Disease, n/total (%): (37.6%)
ELN hCV1253630, All Patients, 0 Rare Alleles, Prava, n/total 212/543
  Total Cardiovascular Disease Events, n/total (%): (39.0%)
ELN hCV1253630, All Patients, 1 Rare Allele, Prava, n/total 62/724
  Non-fatal MI (def & prob), n/total (%): (8.6%)
ELN hCV1253630, All Patients, 1 Rare Allele, Prava, n/total 65/724
  Fatal CHD/Definite Non-fatal MI, n/total (%): (9.0%)
ELN hCV1253630, All Patients, 1 Rare Allele, Prava, n/total 68/724
  Fatal/Non-fatal MI (def & prob), n/total (%): (9.4%)
ELN hCV1253630, All Patients, 1 Rare Allele, Prava, n/total 206/724
  Total Coronary Heart Disease Events, n/total (%): (28.5%)
ELN hCV1253630, All Patients, 1 Rare Allele, Prava, n/total 291/724
  Hosp. for Cardiovascular Disease, n/total (%): (40.2%)
ELN hCV1253630, All Patients, 1 Rare Allele, Prava, n/total 298/724
  Total Cardiovascular Disease Events, n/total (%): (41.2%)
